In paper PMC12803606, “A metabolic comparison of GIPR agonism versus GIPR antagonism in male mice” (Diabetes, Obesity & Metabolism, 2025):

Assays:
[1] = system: humans; conditions: ref 12 (as cited in b3; abstract prints none); cited from earlier work
[2] = system: GIPR; assay: Intraperitoneal glucose tolerance test in lean mice, hGIP with NN-GIPR-Ant (in vivo antagonism); design: species or system mouse; conditions: n = 8, hGIP 50 nmol/kg with glucose 2 g/kg at t = 0
Protocol: (A–C) Amino acid sequences of hGIP (A), GIP108 (B) and NN‐GIPR‐Ant (C). AIB = 2‐aminoisobutyric acid. Side chains denote fatty acid tails. (D–F) cAMP measurements in AD293 cells transiently transfected with the mGIPR (D), mGLP‐1R (E) and mGCGR (F) and stimulated for 30 min with the indicated peptide (n = 3), with three parameter curve fits plotted. (G, H) 60‐min intraperitoneal glucose tolerance test in lean mice (n = 8). (G) Plasma glucose over time with glucose ± hGIP injected at t = 0 and NN‐GIPR‐Ant injected at t = −120 min, analysed using two‐way ANOVA with time and subgroup as co‐variables. (H) Glucose AUC derived from the time course in (H), analysed using a one‐way ANOVA. Dunnett's test was used to correct for multiple comparisons against vehicle control. […] The colour of the star denotes which group is statistically different compared to vehicle control.
All animal procedures were approved by the British Home Office under the UK Animals (Scientific Procedures) Act 1986, and Amendment Regulations, 2012 and approved by the Imperial College London Animal Welfare and Ethical Review Body. Wild type male C57BL/6J mice (8-14 weeks; Charles River, UK) were used. […]
Mice were fasted at 08:00. […] Total glucose AUC was calculated by trapezoidal rule using y=0 as baseline. Glucose readings were measured in mmol/L using the same ISO15197-compliant GlucoRx Nexus (GlucoRx, Guildford, UK) glucometer.

[3] = system: mouse GIPR; assay: HTRF cAMP assay, AD293 cells transiently transfected with mGIPR; assay type: cell-based; conditions: 30 min, n = 3
From the text: For the antagonist we used a long‐acting GIPR antagonist, named throughout as NN‐GIPR‐Ant, previously characterised by Yang et al.[7] We first confirmed the actions of NN‐GIPR‐Ant as a mouse GIPR antagonist, performing in vitro cAMP assays in AD293 cells, a human embryonic kidney cell line commonly used in G‐protein coupled receptor research due to rapid division and ease of receptor transfection.
(A–C) Amino acid sequences of hGIP (A), GIP108 (B) and NN‐GIPR‐Ant (C). AIB = 2‐aminoisobutyric acid. Side chains denote fatty acid tails. (D–F) cAMP measurements in AD293 cells transiently transfected with the mGIPR (D), mGLP‐1R (E) and mGCGR (F) and stimulated for 30 min with the indicated peptide (n = 3), with three parameter curve fits plotted. (G, H) 60‐min intraperitoneal glucose tolerance test in lean mice (n = 8). (G) Plasma glucose over time with glucose ± hGIP injected at t = 0 and NN‐GIPR‐Ant injected at t = −120 min, analysed using two‐way ANOVA with time and subgroup as co‐variables. (H) Glucose AUC derived from the time course in (H), analysed using a one‐way ANOVA. Dunnett's test was used to correct for multiple comparisons against vehicle control. […] The colour of the star denotes which group is statistically different compared to vehicle control. […]

[4] = system: glucagon secretion; conditions: cited from earlier work
From the text: We next investigated the effects of GIP108 and NN‐GIPR‐Ant administration on insulin sensitivity.

[5] = system: CTX; conditions: rodent models and humans; cited from earlier work
[6] = system: osteoblastic and osteoclastic activity; conditions: cited from earlier work
[7] = human study, 6‐day GIP infusion; cited from earlier work
From the text: We also investigated the effects of GIPR agonism and antagonism on liver triglyceride content.

[8] = system: human adipocytes; conditions: acute administration; ex vivo and in vivo glucose uptake; cited from earlier work
From the text: Another important focus of this study was the effect of GIP108 and NN‐GIPR‐Ant administration on insulin sensitivity.

## maridebart cafraglutide: Amgen's high‐affinity GIPR antagonist antibody with GLP‐1R agonist conjugate arms
[1]
  weight loss effects in humans: significant weight loss effects in humans

## hGIP: hGIP(1‐42); sequence in Figure 1A (YAEGTFISDYSIAMDKIHQQDFVNWLLAQKGKKNDWKHNITQ; Gastric inhibitory polypeptide; UniProt P09681 52-93, looked up)
[2]
  improvement of glucose tolerance by hGIP: improve glucose tolerance
[3]
  stimulation of cAMP at mouse GIPR: ability to stimulate cAMP

## glucose‐dependent insulinotropic polypeptide [GIP]
[4]
  glucagon secretion in hypoglycaemia: potently stimulate glucagon secretion in hypoglycaemia
[5]
  CTX levels, acute: acutely lowers CTX levels
[6]
  osteoblastic and osteoclastic activity: increases osteoblastic and suppresses osteoclastic activity
[7]
  liver fat: increased liver fat
[8]
  insulin sensitising effect in human adipocytes: increasing adipocyte glucose uptake both ex vivo and in vivo
